Reference: patent US9359367B2, “Tetrahydroquinazolinone derivatives as PARP inhibitors” (Lupin Limited, priority 2012, dated 2016)

Target: T1, PARP1 (Homo sapiens, UniProt P09874)
T1 construct: purchased BPS Bioscience
Assay: PARP1 Biochemical Assay (BPS Bioscience kit, chemiluminescence)
Conditions: histone-coated plate, biotinilated NAD+, 25° C. for 60 min, luminescence, read-out: PARP 1 inhibition IC50
Outline: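 Human PARP1 (25–75 ng/well) with activated DNA was incubated with compound on histone-coated wells. Biotinylated NAD+ was added and the reaction ran 60 min at 25 °C. Ribosylation was detected by streptavidin-HRP chemiluminescence, % inhibition was normalised to enzyme-free and uninhibited controls, and IC50 was fitted from % inhibition versus concentration.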

T1 sequence (P09874 whole entry): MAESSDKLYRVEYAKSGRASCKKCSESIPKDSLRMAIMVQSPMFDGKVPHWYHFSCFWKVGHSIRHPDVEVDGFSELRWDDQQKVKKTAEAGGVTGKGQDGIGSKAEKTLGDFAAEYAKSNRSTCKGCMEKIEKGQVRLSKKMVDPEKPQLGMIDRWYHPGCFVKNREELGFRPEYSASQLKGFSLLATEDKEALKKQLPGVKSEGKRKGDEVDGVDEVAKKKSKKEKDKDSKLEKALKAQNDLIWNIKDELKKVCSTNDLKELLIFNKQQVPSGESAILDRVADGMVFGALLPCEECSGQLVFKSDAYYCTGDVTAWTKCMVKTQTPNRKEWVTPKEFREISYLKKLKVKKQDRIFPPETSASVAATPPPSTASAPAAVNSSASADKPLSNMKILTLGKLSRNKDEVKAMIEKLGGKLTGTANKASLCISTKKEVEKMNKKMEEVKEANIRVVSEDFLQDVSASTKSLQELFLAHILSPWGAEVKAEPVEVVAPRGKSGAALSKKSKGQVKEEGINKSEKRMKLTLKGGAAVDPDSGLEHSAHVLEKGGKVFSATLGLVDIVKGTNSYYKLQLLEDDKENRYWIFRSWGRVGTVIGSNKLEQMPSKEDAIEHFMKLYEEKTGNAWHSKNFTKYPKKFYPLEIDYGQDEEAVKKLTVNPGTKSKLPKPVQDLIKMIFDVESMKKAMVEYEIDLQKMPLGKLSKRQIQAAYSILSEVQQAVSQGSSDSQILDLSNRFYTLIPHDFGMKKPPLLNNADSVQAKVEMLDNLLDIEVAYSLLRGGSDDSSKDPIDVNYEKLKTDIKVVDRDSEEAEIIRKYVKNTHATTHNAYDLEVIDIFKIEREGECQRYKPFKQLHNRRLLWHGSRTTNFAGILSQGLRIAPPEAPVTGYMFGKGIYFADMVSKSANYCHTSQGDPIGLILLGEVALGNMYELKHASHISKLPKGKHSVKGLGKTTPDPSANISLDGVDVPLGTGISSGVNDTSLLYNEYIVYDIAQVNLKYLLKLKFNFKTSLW

SMILES | IC50 [µM]
O=c1[nH]c(C2=C[C@H](N3CCN(c4cc(F)cc(F)c4)CC3)CC2)nc2c1CC1(CC2)CC1 [Compound 109, (R)-2′-(3-(4-(3,5-difluorophenyl)piperazin-1-yl)cyclopent-1-en-1-yl)-7′,8′-dihydro-3′H-spiro[cyclopropane-1,6′-quinazolin]-4′(5′H)-one] | 0.001 to 0.5
O=c1[nH]c(C2=C[C@H](N3CCN(c4c(F)cccc4F)CC3)CC2)nc2c1CC1(CC2)CC1 [Compound 110, (R)-2′-(3-(4-(2,6-difluorophenyl)piperazin-1-yl)cyclopent-1-en-1-yl)-7′,8′-dihydro-3′H-spiro[cyclopropane-1,6′-quinazolin]-4′(5′H)-one] | 0.501 to 5
N#Cc1ccc(N2CCN([C@H]3C=C(c4nc5c(c(=O)[nH]4)CC4(CC5)CC4)CC3)CC2)c(F)c1 [Compound 111, (R)-3-fluoro-4-(4-(3-(4′-oxo-4′,5′,7′,8′-tetrahydro-3′H-spiro[cyclopropane-1,6′-quinazolin]-2′-yl)cyclopent-2-en-1-yl)piperazin-1-yl)benzonitrile] | 0.001 to 0.5
CNC(=O)c1cnc(N2CCN([C@H]3C=C(c4nc5c(c(=O)[nH]4)CC4(CC5)CC4)CC3)CC2)c(F)c1 [Compound 112, (R)-5-fluoro-N-methyl-6-(4-(3-(4′-oxo-4′,5′,7′,8′-tetrahydro-3′H-spiro[cyclopropane-1,6′-quinazolin]-2′-yl)cyclopent-2-en-1-yl)piperazin-1-yl)nicotinamide] | 0.501 to 5
Cc1cnc(N2CCN([C@H]3C=C(c4nc5c(c(=O)[nH]4)CC4(CC5)CC4)CC3)CC2)s1 [Compound 113, (R)-2′-(3-(4-(5-methylthiazol-2-yl)piperazin-1-yl)cyclopent-1-en-1-yl)-7′,8′-dihydro-3′H-spiro[cyclopropane-1,6′-quinazolin]-4′(5′H)-one] | 0.001 to 0.5
COc1cc(N2CCN([C@H]3C=C(c4nc5c(c(=O)[nH]4)CC4(CC5)CC4)CC3)CC2)ccc1F [Compound 114, (R)-2′-(3-(4-(4-fluoro-3-methoxyphenyl)piperazin-1-yl)cyclopent-1-en-1-yl)-7′,8′-dihydro-3′H-spiro[cyclopropane-1,6′-quinazolin]-4′(5′H)-one] | 0.001 to 0.5
O=c1[nH]c(C2=C[C@H](N3CCN(c4cc(F)cc(Cl)c4)CC3)CC2)nc2c1CC1(CC2)CC1 [Compound 115, (R)-2′-(3-(4-(3-chloro-5-fluorophenyl)piperazin-1-yl)cyclopent-1-en-1-yl)-7′,8′-dihydro-3′H-spiro[cyclopropane-1,6′-quinazolin]-4′(5′H)-one] | 0.501 to 5
O=c1[nH]c(C2=C[C@H](N3CCN(c4ccccc4F)CC3)CC2)nc2c1CC1(CC2)CC1 [Compound 116, (R)-2′-(3-(4-(2-fluorophenyl)piperazin-1-yl)cyclopent-1-en-1-yl)-7′,8′-dihydro-3′H-spiro[cyclopropane-1,6′-quinazolin]-4′(5′H)-one] | 0.001 to 0.5
O=c1[nH]c(C2=C[C@H](N3CCN(c4ccccc4)CC3)CC2)nc2c1CC1(CC2)CC1 [Compound 117, (R)-2′-(3-(4-phenylpiperazin-1-yl)cyclopent-1-en-1-yl)-7′,8′-dihydro-3′H-spiro[cyclopropane-1,6′-quinazolin]-4′(5′H)-one] | 0.001 to 0.5
O=c1[nH]c([C@@H]2CC[C@H](N3CCN(c4ccc(Cl)cc4)CC3)C2)nc2c1CC1(CC2)CC1 [Compound 118, 2′-((1R,3S)-3-(4-(4-chlorophenyl)piperazin-1-yl)cyclopentyl)-7′,8′-dihydro-3′H-spiro[cyclopropane-1,6′-quinazolin]-4′(5′H)-one] | 0.501 to 5
O=c1[nH]c([C@H]2CC[C@H](N3CCN(c4ccc(Cl)cc4)CC3)C2)nc2c1CC1(CC2)CC1 [Compound 119, 2′-((1S,3S)-3-(4-(4-chlorophenyl)piperazin-1-yl)cyclopentyl)-7′,8′-dihydro-3′H-spiro[cyclopropane-1,6′-quinazolin]-4′(5′H)-one] | 0.001 to 0.5
O=c1[nH]c([C@H]2CC[C@@H](N3CCN(c4ccc(Cl)cc4)CC3)C2)nc2c1CC1(CC2)CC1 [Compound 120, 2′-((1S,3R)-3-(4-(4-chlorophenyl)piperazin-1-yl)cyclopentyl)-7′,8′-dihydro-3′H-spiro[cyclopropane-1,6′-quinazolin]-4′(5′H)-one] | 0.501 to 5
O=c1[nH]c([C@@H]2CC[C@@H](N3CCN(c4ccc(Cl)cc4)CC3)C2)nc2c1CC1(CC2)CC1 [Compound 121, 2′-((1R,3R)-3-(4-(4-chlorophenyl)piperazin-1-yl)cyclopentyl)-7′,8′-dihydro-3′H-spiro[cyclopropane-1,6′-quinazolin]-4′(5′H)-one] | 5 to 500
O=c1[nH]c(C2=C[C@H](N3CCN(c4ccccc4Cl)CC3)CC2)nc2c1CC1(CC2)CC1 [Compound 122, (R)-2′-(3-(4-(2-chlorophenyl)piperazin-1-yl)cyclopent-1-en-1-yl)-7′,8′-dihydro-3′H-spiro[cyclopropane-1,6′-quinazolin]-4′(5′H)-one] | 0.001 to 0.5
Cc1ccc(F)cc1N1CCN([C@H]2C=C(c3nc4c(c(=O)[nH]3)CC3(CC4)CC3)CC2)CC1 [Compound 123, (R)-2′-(3-(4-(5-fluoro-2-methylphenyl)piperazin-1-yl)cyclopent-1-en-1-yl)-7′,8′-dihydro-3′H-spiro[cyclopropane-1,6′-quinazolin]-4′(5′H)-one] | 0.001 to 0.5
Cc1ccc(N2CCN([C@H]3C=C(c4nc5c(c(=O)[nH]4)CC4(CC5)CC4)CC3)CC2)nc1 [Compound 124, (R)-2′-(3-(4-(5-methylpyridin-2-yl)piperazin-1-yl)cyclopent-1-en-1-yl)-7′,8′-dihydro-3′H-spiro[cyclopropane-1,6′-quinazolin]-4′(5′H)-one] | 0.001 to 0.5
Cc1ccnc(N2CCN([C@H]3C=C(c4nc5c(c(=O)[nH]4)CC4(CC5)CC4)CC3)CC2)c1 [Compound 125, (R)-2′-(3-(4-(4-methylpyridin-2-yl)piperazin-1-yl)cyclopent-1-en-1-yl)-7′,8′-dihydro-3′H-spiro[cyclopropane-1,6′-quinazolin]-4′(5′H)-one] | 0.001 to 0.5
Cc1cc(F)cc(N2CCN([C@H]3C=C(c4nc5c(c(=O)[nH]4)CC4(CC5)CC4)CC3)CC2)c1 [Compound 126, (R)-2′-(3-(4-(3-fluoro-5-methylphenyl)piperazin-1-yl)cyclopent-1-en-1-yl)-7′,8′-dihydro-3′H-spiro[cyclopropane-1,6′-quinazolin]-4′(5′H)-one] | 0.501 to 5
N#Cc1ccc(N2CCN([C@H]3C=C(c4nc5c(c(=O)[nH]4)CC4(CC5)CC4)CC3)CC2)cc1F [Compound 127, (R)-2-fluoro-4-(4-(3-(4′-oxo-4′,5′,7′,8′-tetrahydro-3′H-spiro[cyclopropane-1,6′-quinazolin]-2′-yl)cyclopent-2-en-1-yl)piperazin-1-yl)benzonitrile] | 0.001 to 0.5
O=c1[nH]c(C2=C[C@H](N3CCN(c4ncccn4)CC3)CC2)nc2c1CC1(CC2)CC1 [Compound 128, (R)-2′-(3-(4-(pyrimidin-2-yl)piperazin-1-yl)cyclopent-1-en-1-yl)-7′,8′-dihydro-3′H-spiro[cyclopropane-1,6′-quinazolin]-4′(5′H)-one] | 5 to 500
Cc1ncccc1N1CCN([C@H]2C=C(c3nc4c(c(=O)[nH]3)CC3(CC4)CC3)CC2)CC1 [Compound 129, (R)-2′-(3-(4-(2-methylpyridin-3-yl)piperazin-1-yl)cyclopent-1-en-1-yl)-7′,8′-dihydro-3′H-spiro[cyclopropane-1,6′-quinazolin]-4′(5′H)-one] | 0.001 to 0.5
CNC(=O)c1ccnc(N2CCN([C@H]3C=C(c4nc5c(c(=O)[nH]4)CC4(CC5)CC4)CC3)CC2)c1 [Compound 130, (R)—N-methyl-2-(4-(3-(4′-oxo-4′,5′,7′,8′-tetrahydro-3′H-spiro[cyclopropane-1,6′-quinazolin]-2′-yl)cyclopent-2-en-1-yl)piperazin-1-yl)isonicotinamide] | 0.501 to 5
CNC(=O)c1cccnc1N1CCN([C@H]2C=C(c3nc4c(c(=O)[nH]3)CC3(CC4)CC3)CC2)CC1 [Compound 131, (R)—N-methyl-2-(4-(3-(4′-oxo-4′,5′,7′,8′-tetrahydro-3′H-spiro[cyclopropane-1,6′-quinazolin]-2′-yl)cyclopent-2-en-1-yl)piperazin-1-yl)nicotinamide] | 0.501 to 5
Cc1cccnc1N1CCN([C@H]2C=C(c3nc4c(c(=O)[nH]3)CC3(CC4)CC3)CC2)CC1 [Compound 132, (R)-2′-(3-(4-(3-methylpyridin-2-yl)piperazin-1-yl)cyclopent-1-en-1-yl)-7′,8′-dihydro-3′H-spiro[cyclopropane-1,6′-quinazolin]-4′(5′H)-one] | 0.001 to 0.5
COc1cc(F)ccc1N1CCN([C@H]2C=C(c3nc4c(c(=O)[nH]3)CC3(CC4)CC3)CC2)CC1 [Compound 133, (R)-2′-(3-(4-(4-fluoro-2-methoxyphenyl)piperazin-1-yl)cyclopent-1-en-1-yl)-7′,8′-dihydro-3′H-spiro[cyclopropane-1,6′-quinazolin]-4′(5′H)-one] | 0.001 to 0.5
CNC(=O)c1ccc(N2CCN([C@H]3C=C(c4nc5c(c(=O)[nH]4)CC4(CC5)CC4)CC3)CC2)c(Cl)c1 [Compound 134, (R)-3-chloro-N-methyl-4-(4-(3-(4′-oxo-4′,5′,7′,8′-tetrahydro-3′H-spiro[cyclopropane-1,6′-quinazolin]-2′-yl)cyclopent-2-en-1-yl)piperazin-1-yl)benzamide] | 0.001 to 0.5
CCc1cnc(N2CCN([C@H]3C=C(c4nc5c(c(=O)[nH]4)CC4(CC5)CC4)CC3)CC2)nc1 [Compound 135, (R)-2′-(3-(4-(5-ethylpyrimidin-2-yl)piperazin-1-yl)cyclopent-1-en-1-yl)-7′,8′-dihydro-3′H-spiro[cyclopropane-1,6′-quinazolin]-4′(5′H)-one] | 5 to 500
Cc1ccc(N2CCN([C@H]3C=C(c4nc5c(c(=O)[nH]4)CC4(CC5)CC4)CC3)CC2)cc1C [Compound 136, (R)-2′-(3-(4-(3,4-dimethylphenyl)piperazin-1-yl)cyclopent-1-en-1-yl)-7′,8′-dihydro-3′H-spiro[cyclopropane-1,6′-quinazolin]-4′(5′H)-one] | 0.501 to 5
